Assays:
MCF-7 = test: cells; settings: Homo sapiens, MCF7, 48 h
SK-MEL-28 = test: cells; settings: Homo sapiens, SK-MEL-28, 48 h
SK-MEL-5 = test: cells; settings: Homo sapiens, SK-MEL-5, 48 h, read-out: Median Growth Inhibitory Concentration (GI50)
MOLT-4 = test: cells; settings: Homo sapiens, MOLT-4, 48 h
OVCAR-3 = test: cells; settings: Homo sapiens, OVCAR-3, 48 h
MDA-MB-435 = test: cells; settings: Homo sapiens, MDA-MB-435, 48 h
K-562 = test: cells; settings: Homo sapiens, K562, 48 h
786-0 = test: cells; settings: Homo sapiens, 786-0, 48 h
HS 578T = test: cells; settings: Homo sapiens, 48 h
MDA-N = test: cells; settings: Homo sapiens, 48 h
SR = test: cells; settings: Homo sapiens, 48 h
[1] = tested on: Vascular Endothelial Growth Factor (VEGF) production by human melanoma cell line RPMI-7951; test: VEGF ELISA, RPMI-7951; settings: for VEGF ELISA / VEGF: RPMI-7951; for VEGF ELISA: DMSO control 3713
HCT-116 = test: cells; settings: Homo sapiens, HCT-116, 48 h
CAKI-1 = test: cells; settings: Homo sapiens, CAKI-1, 48 h
OVCAR-8 = test: cells; settings: Homo sapiens, OVCAR-8, 48 h
RPMI-8226 = test: cells; settings: Homo sapiens, RPMI-8226, 48 h, read-out: Median Growth Inhibitory Concentration (GI50)
NCI-H23 = test: cells; settings: Homo sapiens, NCI-H23, 48 h
UO-31 = test: cells; settings: Homo sapiens, UO-31, 48 h
OVCAR-4 = test: cells; settings: Homo sapiens, OVCAR-4, 48 h
KM12 = test: cells; settings: Homo sapiens, KM12, 48 h
SF-539 = test: cells; settings: Homo sapiens, SF-539, 48 h
SW-620 = test: cells; settings: Homo sapiens, SW-620, 48 h
[2] = tested on: Sixty human tumor cell lines; test: cells; settings: 48 h
A549 = test: cells; settings: Homo sapiens, A549, 48 h
NCI-H460 = test: cells; settings: Homo sapiens, NCI-H460, 48 h
HCC-2998 = test: cells; settings: Homo sapiens, HCC 2998, 48 h
LOX IMVI = test: cells; settings: Homo sapiens, 48 h, read-out: Median Growth Inhibitory Concentration (GI50)
SK-OV-3 = test: cells; settings: Homo sapiens, SK-OV-3, 48 h
IGROV1 = test: cells; settings: Homo sapiens, IGROV-1, 48 h
[3] = read-out: Median Growth Inhibitory Concentration (GI50)
[4] = read-out: Median Lethal Concentration (LC50)
[5] = Homo sapiens, RPMI-7951, 72 h, read-out: VEGF

O=C1C(=Cc2ccccc2O)CCCC1=Cc1ccccc1O [EF4, 2,6Bis(2-hydroxybenzylidene)cyclohexanone]
GI50 (MCF-7; [3]): 2.7 µM
CC50 (MCF-7; [4]): 44.1 µM
GI50 (SK-MEL-28; [3]): 2.9 µM
CC50 (SK-MEL-28; [4]): 33.8 µM
GI50 (SK-MEL-5): 1.6 µM
GI50 (MOLT-4; [3]): 2.2 µM
CC50 (MOLT-4; [4]): 69.5 µM
GI50 (OVCAR-3; [3]): 3.7 µM
CC50 (OVCAR-3; [4]): 40.7 µM
GI50 (MDA-MB-435; [3]): 1.8 µM
CC50 (MDA-MB-435; [4]): 8 µM
GI50 (K-562; [3]): 2.5 µM
CC50 (K-562; [4]): 91.4 µM
GI50 (786-0; [3]): 2.3 µM
CC50 (786-0; [4]): 15.9 µM
GI50 (HS 578T; [3]): 5.1 µM
CC50 (HS 578T; [4]): > 100 µM
GI50 (MDA-N; [3]): 1.6 µM
CC50 (MDA-N; [4]): 20.2 µM
GI50 (SR; [3]): 1.6 µM
CC50 (SR; [4]): > 100 µM
activity at 5 µM [1, 5]: 70%
activity at 20 µM [1, 5]: 0%
VEGF ELISA ([1]; 5 μM): 2159 pg/ml/well
VEGF ([1]; 5 μM, DMSO control 4197 (EF-25: 1045)): 2920 pg/mL
VEGF ELISA ([1]; 20 μM): 199 pg/ml/well
VEGF ([1]; 20 μM, DMSO control 4197): 0 pg/mL
GI50 (HCT-116; [3]): 2.2 µM
CC50 (HCT-116; [4]): 13.2 µM
GI50 (CAKI-1; [3]): 3.1 µM
CC50 (CAKI-1; [4]): > 100 µM
GI50 (OVCAR-8; [3]): 2.9 µM
CC50 (OVCAR-8; [4]): > 100 µM
GI50 (RPMI-8226): 0.6 µM
GI50 (NCI-H23; [3]): 1.8 µM
CC50 (NCI-H23; [4]): 9.4 µM
GI50 (UO-31; [3]): 1.6 µM
CC50 (UO-31; [4]): 6.2 µM
GI50 (OVCAR-4; [3]): 2.5 µM
CC50 (OVCAR-4; [4]): 18.4 µM
GI50 (KM12; [3]): 1.6 µM
CC50 (KM12; [4]): 6.5 µM
GI50 (SF-539; [3]): 2 µM
CC50 (SF-539; [4]): 24.7 µM
GI50 (SW-620; [3]): 2.7 µM
CC50 (SW-620; [4]): 76.3 µM
GI50 ([2]; read-out: Median Growth Inhibitory Concentration (GI50), Mean): 2.4 µM
CC50 ([2]; read-out: Median Lethal Concentration (LC50), Mean): 33.9 µM
GI50 (A549; [3]): 2.6 µM
CC50 (A549; [4]): > 100 µM
GI50 (NCI-H460; [3]): 2.3 µM
CC50 (NCI-H460; [4]): 40.2 µM
GI50 (HCC-2998; [3]): 1.7 µM
CC50 (HCC-2998; [4]): 5.9 µM
GI50 (LOX IMVI): 2.2 µM
GI50 (SK-OV-3; [3]): 6.7 µM
CC50 (SK-OV-3; [4]): 63.6 µM
GI50 (IGROV1; [3]): 2.9 µM
CC50 (IGROV1; [4]): 43.9 µM

Reference: patent publication US7371766B2, “Curcumin analogs with anti-tumor and anti-angiogenic properties” (Emory University, priority 1999, dated 2008)
